Two molecules from patent US20110059850A1, “PHYTOTOXIC HALOGENATED DERIVATIVES OF BENZOXAZINONES” (UNIVERSIDAD DE CÁDIZ, priority 2006, published 2011) can be followed below.

Assay [1] relates to Lolium rigidum L. (ryegrass), common biotype and biotype multiresistant to herbicides SLR31. Nature of the assay: phytotoxicity bioassay in Petri dishes, L. rigidum biotypes. The following applies: common biotype versus multiresistant biotype SLR31. In kind it is in vivo. As for the experimental part: (§1) The phytotoxicity bioassays for the compounds object of the invention are performed by means of the protocol of phytotoxicity bioassays in Petri dishes developed by the Grupo de Alelopatía de Cádiz (Cádiz Allelopathy Group) (see, for example: Macías, F. A.; Castellano, D.; Molinillo, J. M. G.; J. Agric. Food Chem. 2000, 48, 6, 2512-2521).
(§2) This assay attempts to imitate the natural conditions of the action of the products to be assayed on seeds of selected plant species, therefore the products are supplied in the form of aqueous solution in a Petri dish in which a certain number of seeds of each receiving species is introduced. The concentration range used allows observing the relationship between the phytotoxic activity of the product and its concentration. The dilutions assayed were 10^−3 M, 5·10^−4 M, 10^−4 M, 5·10^−5 M, 10^−5 M, 5·10^−6 M, 10^−6 M, 5·10^−7, 10^−7 and 5·10^−8. These solutions are buffered at pH=6 using to that end a 10 mM solution of 2-[N-morpholino]-ethanesulfonic acid (MES) the pH of which is adjusted to the desired value by means of adding a 1M solution of NaOH. The blank of this experiment is distilled and deionized water also buffered with MES but in which there is no product dissolved. […]

Assay [2] concerns Lepidium sativum L. (watercress). The experiment in a line: phytotoxicity bioassay in Petri dishes, radicle length. In kind it is in vivo. The settings on record: sigmoid type dose-response model, pH 6, 25° C., dark. On the procedure: as §1, §2

For the molecule `O=C1COc2ccc(F)cc2N1O` [Compound II, 6-fluoro-4-hydroxy-(2H)-1,4-benzoxazin-3(4H)-one], in assay [1], the “most affected L. rigidum biotype” value is reported as “the multiresistant biotype was the most affected”.

Take `O=C1COc2ccc(Cl)cc2N1O` [VII, 6-chloro-4-hydroxy-(2H)-1,4-benzoxazin-3(4H)-one]: the 50% inhibitory concentration (IC50) (usually the concentration needed to halve the response being measured) in assay [2] is roughly 58 nM. The “most affected L. rigidum biotype” value in assay [1] is recorded as “the opposite trend”.
